# Results as given in the supplement of paper PMC10307832.
# Assays:
# Experiment in all cases: relative viability (nuclei count vs DMSO), 5 days (fraction); higher = more cells survive
# [1] = test system: ChaGo-K-1
# Summary of the method: (§1)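 After 5 days of treatment, lung cancer cells in 1536-well plates were fixed and stained in a single step (final 0.05% Triton X-100, 1% formaldehyde, 1 ug/ml Hoechst) and their nuclei counted on 4× images. Treatment had been applied by pin tool the day after seeding as one drug alone or as a fixed anchor-drug dose with five library-drug doses (not always all listed) in √10 steps. Relative viability is the nuclei count of treated wells divided by that of vehicle wells, and values are medians of duplicate plates.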
# [2] = test system: LXF-289
# Summary of the method: as §1
# [3] = test system: NCI-H3122
# Summary of the method: as §1
# [4] = test system: RERF-LC-KJ
# Summary of the method: as §1
# [5] = test system: LCLC-103H
# Summary of the method: as §1
# [6] = test system: LOU-NH91
# Summary of the method: as §1
# [7] = test system: HCC-78
# Summary of the method: as §1
# [8] = test system: NCI-H322M
# Summary of the method: as §1
# [9] = test system: SK-LU-1
# Summary of the method: as §1
# [10] = test system: LU99A
# Summary of the method: as §1
# [11] = test system: NCI-H2085
# Summary of the method: as §1
# [12] = test system: NCI-H2126
# Summary of the method: as §1
# [13] = test system: NCI-H1666
# Summary of the method: as §1
# [14] = test system: LK-2
# Summary of the method: as §1
# [15] = test system: NCI-H23
# Summary of the method: as §1
# [16] = test system: NCI-H1975
# Summary of the method: as §1
# [17] = test system: SW 1573
# Summary of the method: as §1
# [18] = test system: HCC-827
# Summary of the method: as §1
# [19] = test system: SW 900
# Summary of the method: as §1
# [20] = test system: EMC-BAC-2
# Summary of the method: as §1
# [21] = test system: EPLC-272H
# Summary of the method: as §1
# [22] = test system: NCI-H2405
# Summary of the method: as §1
smiles,measurement,setting,value
O=C(O)c1ccc(-c2c[nH]c3ncc(-c4ccccc4)cc23)cc1C1CCCC1 + CC(=O)Nc1cccc(-n2c(=O)n(C3CC3)c(=O)c3c(Nc4ccc(I)cc4F)n(C)c(=O)c(C)c32)c1 [Trametinib] (partner 0.02 µM),relative viability,[1]; first compound 0.04 µM,1.15
same,relative viability,[1]; first compound 0.1265 µM,0.895
same,relative viability,[1]; first compound 0.4 µM,0.89
same,relative viability,[1]; first compound 1.265 µM,0.857
same,relative viability,[2]; first compound 0.04 µM,0.625
same,relative viability,[2]; first compound 0.1265 µM,0.685
same,relative viability,[2]; first compound 0.4 µM,0.666
same,relative viability,[2]; first compound 1.265 µM,0.535
same,relative viability,[3]; first compound 0.04 µM,0.196
same,relative viability,[3]; first compound 0.1265 µM,0.24
same,relative viability,[3]; first compound 0.4 µM,0.253
same,relative viability,[3]; first compound 1.265 µM,0.277
same,relative viability,[4]; first compound 0.04 µM,0.916
same,relative viability,[4]; first compound 0.1265 µM,0.908
same,relative viability,[4]; first compound 0.4 µM,0.814
same,relative viability,[4]; first compound 1.265 µM,0.657
same,relative viability,[5]; first compound 0.04 µM,0.65
same,relative viability,[5]; first compound 0.1265 µM,0.697
same,relative viability,[5]; first compound 0.4 µM,0.68
same,relative viability,[5]; first compound 1.265 µM,0.644
same,relative viability,[6]; first compound 0.04 µM,0.774
same,relative viability,[6]; first compound 0.1265 µM,0.848
same,relative viability,[6]; first compound 0.4 µM,0.773
same,relative viability,[6]; first compound 1.265 µM,0.681
same,relative viability,[7]; first compound 0.1265 µM,0.937
same,relative viability,[7]; first compound 0.4 µM,0.945
same,relative viability,[7]; first compound 1.265 µM,0.829
same,relative viability,[8]; first compound 0.04 µM,0.482
same,relative viability,[8]; first compound 0.1265 µM,0.633
same,relative viability,[8]; first compound 0.4 µM,0.524
same,relative viability,[8]; first compound 1.265 µM,0.493
same,relative viability,[9]; first compound 0.04 µM,0.522
same,relative viability,[9]; first compound 0.1265 µM,0.591
same,relative viability,[9]; first compound 0.4 µM,0.513
same,relative viability,[9]; first compound 1.265 µM,0.37
same,relative viability,[10]; first compound 0.04 µM,0.575
same,relative viability,[10]; first compound 0.1265 µM,0.516
same,relative viability,[10]; first compound 0.4 µM,0.52
same,relative viability,[10]; first compound 1.265 µM,0.51
same,relative viability,[11]; first compound 0.04 µM,0.508
same,relative viability,[11]; first compound 0.1265 µM,0.488
same,relative viability,[11]; first compound 0.4 µM,0.499
same,relative viability,[11]; first compound 1.265 µM,0.384
same,relative viability,[12]; first compound 0.04 µM,0.597
same,relative viability,[12]; first compound 0.1265 µM,0.585
same,relative viability,[12]; first compound 0.4 µM,0.562
same,relative viability,[12]; first compound 1.265 µM,0.55
same,relative viability,[13]; first compound 0.04 µM,0.916
same,relative viability,[13]; first compound 0.1265 µM,0.809
same,relative viability,[13]; first compound 0.4 µM,0.84
same,relative viability,[13]; first compound 1.265 µM,0.598
same,relative viability,[14]; first compound 0.04 µM,0.73
same,relative viability,[14]; first compound 0.1265 µM,0.816
same,relative viability,[14]; first compound 0.4 µM,0.599
same,relative viability,[14]; first compound 1.265 µM,0.781
same,relative viability,[15]; first compound 0.04 µM,0.375
same,relative viability,[15]; first compound 0.1265 µM,0.397
same,relative viability,[15]; first compound 0.4 µM,0.373
same,relative viability,[15]; first compound 1.265 µM,0.258
same,relative viability,[16]; first compound 0.04 µM,0.319
same,relative viability,[16]; first compound 0.1265 µM,0.435
same,relative viability,[16]; first compound 0.4 µM,0.395
same,relative viability,[16]; first compound 1.265 µM,0.32
same,relative viability,[17]; first compound 0.04 µM,0.476
same,relative viability,[17]; first compound 0.1265 µM,0.584
same,relative viability,[17]; first compound 0.4 µM,0.439
same,relative viability,[17]; first compound 1.265 µM,0.365
same,relative viability,[18]; first compound 0.04 µM,0.574
same,relative viability,[18]; first compound 0.1265 µM,0.575
same,relative viability,[18]; first compound 0.4 µM,0.487
same,relative viability,[18]; first compound 1.265 µM,0.362
same,relative viability,[19]; first compound 0.04 µM,0.757
same,relative viability,[19]; first compound 0.1265 µM,0.711
same,relative viability,[19]; first compound 0.4 µM,1.37
same,relative viability,[19]; first compound 1.265 µM,0.454
same,relative viability,[20]; first compound 0.04 µM,0.903
same,relative viability,[20]; first compound 0.1265 µM,0.976
same,relative viability,[20]; first compound 0.4 µM,1.05
same,relative viability,[20]; first compound 1.265 µM,0.973
same,relative viability,[21]; first compound 0.04 µM,0.307
same,relative viability,[21]; first compound 0.1265 µM,0.27
same,relative viability,[21]; first compound 0.4 µM,0.283
same,relative viability,[21]; first compound 1.265 µM,0.276
same,relative viability,[22]; first compound 0.04 µM,0.64
same,relative viability,[22]; first compound 0.1265 µM,0.651
same,relative viability,[22]; first compound 0.4 µM,0.627
same,relative viability,[22]; first compound 1.265 µM,0.587
